Data from paper PMC8584989 (International Journal of Molecular Sciences, 2021).
pIC50: −log10 of the molar value. Read-outs that look alike come from different tables or passages of the source.

Experiments:
[1] = system: CYP3A4; conditions: DI study in healthy subjects; cited from earlier work
[2] = XTT proliferation / drug combination assay; conditions: human
[3] = target: T1, CYP2B6 (Homo sapiens, UniProt P20813); assay: Vivid CYP450 Screening Kit, recombinant CYP2B6; assay type: in vitro ADME; conditions: recombinant enzyme; read-out: CYP2B6 inhibition IC50
T1 construct: purchased Thermo Fisher Scientific
T1 sequence (P20813 whole entry): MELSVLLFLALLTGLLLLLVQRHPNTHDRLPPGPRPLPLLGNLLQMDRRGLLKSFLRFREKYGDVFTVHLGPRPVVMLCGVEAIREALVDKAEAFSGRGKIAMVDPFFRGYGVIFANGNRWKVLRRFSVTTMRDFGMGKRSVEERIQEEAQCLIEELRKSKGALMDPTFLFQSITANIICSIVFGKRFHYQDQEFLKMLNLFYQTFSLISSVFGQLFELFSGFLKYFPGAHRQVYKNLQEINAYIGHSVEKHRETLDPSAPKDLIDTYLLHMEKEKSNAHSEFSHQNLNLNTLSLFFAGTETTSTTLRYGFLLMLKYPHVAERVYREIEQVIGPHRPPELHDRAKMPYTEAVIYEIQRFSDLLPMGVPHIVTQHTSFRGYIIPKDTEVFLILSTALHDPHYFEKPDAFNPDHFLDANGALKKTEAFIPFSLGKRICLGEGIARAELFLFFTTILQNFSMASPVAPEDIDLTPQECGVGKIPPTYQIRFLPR
Procedure: (§1) CYP inhibitory assay was performed using Vivid CYP450 screening kit as described previously. The kits consist of microsomal fraction containing human CYP isoforms, human CYP reductase and in several cases cytochrome b5. Experiments were performed following the manufacturer’s protocol on black 96-well plates using kinetic mode. […] Then, the master mix (CYP isoenzyme with an NADPH regeneration system in buffer) was added in each well and plate was pre-incubated for 10 min. The reaction was started with the mixture of NADP^+ and Vivid substrate and the fluorescence of samples was measured in 1 min interval for 60 min using an Infinite M200 Pro microplate reader (Tecan, Männedorf, Switzerland). Data from linear phase (15 min) were used for data evaluation.

[4] = system: HL60-par cells; assay: XTT proliferation / drug combination assay; assay type: cell-based; conditions: 48 h, read-out: HL60-par IC50
Procedure: (§2) These colorimetric assays were used in various studies presented in this paper (prior induction studies, MDR reversal experiments and comparative viability assays) and were performed as reported previously. […] In MTT experiments, cells were seeded on a 96-well culture plate at densities (in number of cells/well) of 1.3 × 10^4 for MDCKII-par, MDCKII-ABCB1 and MDCKII-ABCG2; 1.2 × 10^4 for A431-par, A431-ABCB1, A431-ABCG2 and A431-ABCC1; 1.2 × 10^4 for NCI-H1299; 1.0 × 10^4 for A459; 2.0 × 10^4 for Caco-2; 5.0 × 10^4 for LS174T; and 1.0 × 10^4 for primary NSCLC explants. On the other hand, for XTT cells were seeded with densities 2.0 × 10^4 for HL60-par, HL60-ABCB1, HL60-ABCG2 and HL60-ABCC1 cells/well on 96-well plates. […] Following 48 h incubation with drugs, Opti-MEM solutions of MTT or XTT (1 mg/mL) with phenazine methosulfate solution (7.50 μg/mL; only for XTT) was added and the cells were incubated for 1 h with the exception of HL60s that were incubated for 5 h.
Based on the computed CI values, the effects of drug combinations were classified as synergistic (CI < 0.9), additive (0.9 < CI < 1.1) or antagonistic (CI > 1.1).

[5] = system: HL60-ABCC1 cells; assay: XTT proliferation assay (comparative viability); assay type: cell-based; conditions: single drug, 48 h
Procedure: as §2

[6] = target: ABCC1 (Homo sapiens, UniProt P33527); assay: Inhibitory accumulation assay in MDCKII-ABCC1 cells; assay type: cell-based
Sequence of ABCC1 (P33527 whole entry): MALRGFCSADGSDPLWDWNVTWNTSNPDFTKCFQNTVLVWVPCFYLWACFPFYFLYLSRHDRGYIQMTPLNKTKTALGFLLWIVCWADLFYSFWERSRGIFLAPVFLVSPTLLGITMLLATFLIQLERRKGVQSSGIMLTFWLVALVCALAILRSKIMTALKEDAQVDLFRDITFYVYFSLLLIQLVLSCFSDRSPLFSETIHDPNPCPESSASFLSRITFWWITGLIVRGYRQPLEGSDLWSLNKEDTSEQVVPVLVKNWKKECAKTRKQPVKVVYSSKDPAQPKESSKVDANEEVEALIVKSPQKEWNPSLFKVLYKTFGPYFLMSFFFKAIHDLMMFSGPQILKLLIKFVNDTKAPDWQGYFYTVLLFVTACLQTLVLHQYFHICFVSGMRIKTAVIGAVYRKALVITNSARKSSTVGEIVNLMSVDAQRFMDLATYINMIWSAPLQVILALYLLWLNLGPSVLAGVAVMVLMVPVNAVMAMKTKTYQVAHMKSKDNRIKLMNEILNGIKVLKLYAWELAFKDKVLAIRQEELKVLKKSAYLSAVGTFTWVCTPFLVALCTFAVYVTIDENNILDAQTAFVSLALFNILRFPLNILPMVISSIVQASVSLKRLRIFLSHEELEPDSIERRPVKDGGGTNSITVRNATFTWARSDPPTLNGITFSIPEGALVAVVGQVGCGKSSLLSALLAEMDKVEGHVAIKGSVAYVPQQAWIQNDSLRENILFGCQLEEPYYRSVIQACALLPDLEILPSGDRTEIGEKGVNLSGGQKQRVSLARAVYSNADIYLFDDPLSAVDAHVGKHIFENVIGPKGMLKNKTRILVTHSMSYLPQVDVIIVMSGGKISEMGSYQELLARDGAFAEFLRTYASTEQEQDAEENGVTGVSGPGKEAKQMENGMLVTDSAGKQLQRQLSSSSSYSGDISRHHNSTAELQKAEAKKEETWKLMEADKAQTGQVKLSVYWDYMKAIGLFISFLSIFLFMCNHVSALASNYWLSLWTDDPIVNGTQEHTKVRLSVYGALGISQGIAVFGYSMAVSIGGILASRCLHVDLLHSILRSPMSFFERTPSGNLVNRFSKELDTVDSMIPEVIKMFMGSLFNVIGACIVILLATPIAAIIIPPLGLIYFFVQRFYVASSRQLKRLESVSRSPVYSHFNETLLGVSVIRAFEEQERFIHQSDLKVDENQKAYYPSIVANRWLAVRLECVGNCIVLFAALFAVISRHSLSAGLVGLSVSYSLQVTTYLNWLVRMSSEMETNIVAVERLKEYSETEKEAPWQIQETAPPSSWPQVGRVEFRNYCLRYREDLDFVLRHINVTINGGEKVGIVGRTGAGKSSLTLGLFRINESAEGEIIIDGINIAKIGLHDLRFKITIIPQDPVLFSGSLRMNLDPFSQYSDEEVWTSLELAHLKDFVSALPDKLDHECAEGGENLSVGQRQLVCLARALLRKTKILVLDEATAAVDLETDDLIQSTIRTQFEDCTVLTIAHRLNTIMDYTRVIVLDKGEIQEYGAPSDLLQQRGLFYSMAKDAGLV
Procedure: (§3) Accumulation assays were performed as described previously. […] The daunorubicin and mitoxantrone accumulation assays were performed in above mentioned cell lines and were also adopted to primary NSCLC cultures. […] Cells were incubated up to 70-80% confluence for approximately 24 h. […] The cells there trypsinized on ice, resuspended with 2% FBS in cold PBS solution and then fluorescence was detected using flow cytometer (BD FACSCanto II, Allschwil, Switzerland). […] For data presentation, the ratios of relative fluorescence units (RFUs) from treated samples to RFUs from vehicle-treated (control) cells were computed generating “relative substrate accumulation”.

[7] = target: T2, CYP2C8 (Homo sapiens, UniProt P10632); assay: Vivid CYP450 Screening Kit, recombinant CYP2C8; assay type: in vitro ADME; conditions: recombinant enzyme; read-out: CYP2C8 inhibition IC50
T2 construct: purchased Thermo Fisher Scientific
T2 sequence (P10632 whole entry): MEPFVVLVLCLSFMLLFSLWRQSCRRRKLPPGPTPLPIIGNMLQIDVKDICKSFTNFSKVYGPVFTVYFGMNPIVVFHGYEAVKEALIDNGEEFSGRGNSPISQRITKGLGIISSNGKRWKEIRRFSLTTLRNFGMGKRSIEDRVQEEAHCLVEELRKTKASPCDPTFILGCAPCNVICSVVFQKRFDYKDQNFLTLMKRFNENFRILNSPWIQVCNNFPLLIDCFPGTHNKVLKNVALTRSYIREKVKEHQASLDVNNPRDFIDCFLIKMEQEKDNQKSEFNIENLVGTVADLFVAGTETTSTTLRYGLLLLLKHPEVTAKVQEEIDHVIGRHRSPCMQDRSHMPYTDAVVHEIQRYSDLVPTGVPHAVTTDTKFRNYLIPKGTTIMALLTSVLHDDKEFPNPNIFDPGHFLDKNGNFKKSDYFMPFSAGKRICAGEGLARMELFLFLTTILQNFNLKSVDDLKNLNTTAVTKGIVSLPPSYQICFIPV
Procedure: as §1

[8] = MTT proliferation / drug combination assay; conditions: human
[9] = target: ABCB1 (Homo sapiens, UniProt P08183); assay: Inhibitory accumulation assay in MDCKII-ABCB1 cells; assay type: cell-based
Sequence of ABCB1 (P08183 whole entry): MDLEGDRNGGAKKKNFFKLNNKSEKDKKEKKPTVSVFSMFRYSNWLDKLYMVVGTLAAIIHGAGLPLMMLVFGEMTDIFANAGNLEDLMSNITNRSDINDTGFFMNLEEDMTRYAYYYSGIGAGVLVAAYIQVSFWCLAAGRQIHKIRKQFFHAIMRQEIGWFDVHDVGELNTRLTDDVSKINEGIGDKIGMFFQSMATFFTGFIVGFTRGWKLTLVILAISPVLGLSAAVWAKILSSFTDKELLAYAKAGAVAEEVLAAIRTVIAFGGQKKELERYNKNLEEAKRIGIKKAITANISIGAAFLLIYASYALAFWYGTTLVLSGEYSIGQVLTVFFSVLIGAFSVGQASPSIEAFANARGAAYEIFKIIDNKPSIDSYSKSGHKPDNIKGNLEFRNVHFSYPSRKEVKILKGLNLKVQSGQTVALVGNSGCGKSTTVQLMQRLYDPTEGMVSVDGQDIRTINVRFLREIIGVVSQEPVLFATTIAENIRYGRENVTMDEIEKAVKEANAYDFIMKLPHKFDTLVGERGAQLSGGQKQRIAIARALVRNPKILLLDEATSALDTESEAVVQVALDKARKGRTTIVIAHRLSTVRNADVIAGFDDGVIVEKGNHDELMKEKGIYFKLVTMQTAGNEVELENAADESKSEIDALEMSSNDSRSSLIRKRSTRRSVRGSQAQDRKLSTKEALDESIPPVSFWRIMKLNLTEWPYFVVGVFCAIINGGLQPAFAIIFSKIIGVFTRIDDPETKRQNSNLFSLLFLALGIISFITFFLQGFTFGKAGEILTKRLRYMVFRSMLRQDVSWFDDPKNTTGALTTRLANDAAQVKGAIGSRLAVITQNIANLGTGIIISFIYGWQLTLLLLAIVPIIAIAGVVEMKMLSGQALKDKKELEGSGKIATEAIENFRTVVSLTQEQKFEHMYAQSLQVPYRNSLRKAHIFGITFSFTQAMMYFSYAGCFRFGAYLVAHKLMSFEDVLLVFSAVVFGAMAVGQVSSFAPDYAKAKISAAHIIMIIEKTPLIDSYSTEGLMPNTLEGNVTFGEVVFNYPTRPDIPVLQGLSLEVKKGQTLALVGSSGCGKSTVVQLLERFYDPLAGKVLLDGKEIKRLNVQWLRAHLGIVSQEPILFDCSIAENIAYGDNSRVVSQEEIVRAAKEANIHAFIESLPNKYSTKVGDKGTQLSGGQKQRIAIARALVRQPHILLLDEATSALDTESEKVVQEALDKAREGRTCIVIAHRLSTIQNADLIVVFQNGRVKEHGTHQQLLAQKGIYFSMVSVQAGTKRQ
Procedure: as §3

[10] = recommended dosing of 500 mg daily; read-out: steady state Cmax; cited from earlier work
[11] = 2 µM daunorubicin, 1 h, read-out: IC50, relative daunorubicin accumulation

For `CN1CCC(COc2cnc(-c3cccc(Cn4nc(-c5cccc(C#N)c5)ccc4=O)c3)nc2)CC1` [tepotinib, Tepotinib], the “Effect on CYP3A4 substrate midazolam” value [1] is listed as “failed to exert the effect”, the IC50 at 48 h [2] is listed as 19.4 µM and the pIC50 [3] is listed as < 4.30. It also gave a pIC50 [4] of 4.71, a pIC50 [5] of 4.70 and a pIC50 ([6]; 2 µM calcein AM, read-out: IC50, relative calceinAM accumulation) of 4.61. The pIC50 [6, 11] was < 4.30, the pIC50 [7] was 4.69 and the IC50 at 48 h [8] was 16.5 µM. The pIC50 [9, 11] was 5.89, the pIC50 ([9]; 8 µM hoechst 33342, read-out: IC50, relative Hoechst 33342 accumulation) was 5.50 and the Cmax [10] was 2620 nM.
